The supplement of paper PMC11061612

Legend:
[1] = test system: A3-KAW (B-Cell Non-Hodgkin's Lymphoma); assay: Bliss excess, mean over the matrix (fraction); higher = more synergy
In short: (§1)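 Cell lines grown in DMEM/F12 or RPMI with 10% FBS were plated in 1536-well plates and held 24 hours at 37°C, 5% CO2 before 72 hours of exposure to two-drug dose matrices, with DMSO typically at 0.2%. CellTiter-Glo 2.0 luminescence gave viability, which was converted to inhibition. Vehicle wells were set to 0 and blank wells to 1. Combination Emax is the second-highest inhibition in the matrix, and Bliss excess is the observed combination effect minus the expected EA + EB − EA·EB, where EA and EB are the single-agent effects.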

A498 (Kidney Carcinoma) = assay: as above
In short: as §1

[2] = test system: A549 (Lung Adenocarcinoma); assay: as above
In short: as §1

[3] = test system: BICR22 (Oral Cavity Carcinoma); assay: as above
In short: as §1

[4] = test system: CAL-29 (Bladder Carcinoma); assay: as above
In short: as §1

CAS-1 (Glioblastoma) = assay: as above
In short: as §1

[5] = test system: COLO-320-HSR (Colorectal Carcinoma); assay: as above
In short: as §1

[6] = test system: COR-L311 (Small Cell Lung Carcinoma); assay: as above
In short: as §1

[7] = test system: NCI-H1581 (Non-Small Cell Lung Carcinoma); assay: as above
In short: as §1

[8] = test system: NCI-H1650 (Lung Adenocarcinoma); assay: as above
In short: as §1

[9] = test system: NCI-H1666 (Lung Adenocarcinoma); assay: as above
In short: as §1

NY (Osteosarcoma) = assay: as above
In short: as §1

PA-1 (Ovarian Carcinoma) = assay: as above
In short: as §1

[10] = test system: SK-MES-1 (Squamous Cell Lung Carcinoma); assay: as above
In short: as §1

[11] = test system: SK-MG-1 (Low Grade Glioma); assay: as above
In short: as §1

[12] = test system: TT (Thyroid Gland Carcinoma); assay: as above
In short: as §1

U-2-OS (Osteosarcoma) = assay: as above
In short: as §1

FU97 (Gastric Carcinoma) = assay: combination Emax (second highest fraction inhibited in the dose matrix, 72 h); higher = more inhibition; extreme values may be limits of the assay
In short: as §1

[13] = test system: HCC1954 (Breast Carcinoma); assay: as above
In short: as §1

[14] = test system: TT2609-C02 (Thyroid Gland Carcinoma); assay: as above
In short: as §1
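Wherever Bliss excess, mean over the matrix is given: after 72 h of two-drug dosing.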

SMILES | Bliss excess [1] | Bliss excess (A498 (Kidney Carcinoma)) | Bliss excess [2] | Bliss excess [3] | Bliss excess [4] | Bliss excess (CAS-1 (Glioblastoma)) | Bliss excess [5] | Bliss excess [6] | Bliss excess [7] | Bliss excess [8] | Bliss excess [9] | Bliss excess (NY (Osteosarcoma)) | Bliss excess (PA-1 (Ovarian Carcinoma)) | Bliss excess [10] | Bliss excess [11] | Bliss excess [12] | Bliss excess (U-2-OS (Osteosarcoma)) | combination Emax (FU97 (Gastric Carcinoma)) | combination Emax [13] | combination Emax [14]
CC1(C)CCC(CN2CCN(c3ccc(C(=O)NS(=O)(=O)c4ccc(NCC5CCOCC5)c([N+](=O)[O-])c4)c(Oc4cnc5[nH]ccc5c4)c3)CC2)=C(c2ccc(Cl)cc2)C1 [Venetoclax] + C1CN(CCC1(C(=O)N[C@@H](CCO)C2=CC=C(C=C2)Cl)N)C3=NC=NC4=C3C=CN4 [Capivasertib] (first compound max 1 µM, 7x7, partner max 3 µM) | -0.0468 | -0.121 | -0.059 | -0.0249 | -0.0319 | -0.0653 | -0.0006 | -0.0022 | -0.041 | -0.0329 | -0.0541 | 0.0029 | -0.0541 | -0.044 | -0.0649 | -0.103 | -0.0414 | 0.533 | 0.558 | 0.139
CC1(C)CCC(CN2CCN(c3ccc(C(=O)NS(=O)(=O)c4ccc(NCC5CCOCC5)c([N+](=O)[O-])c4)c(Oc4cnc5[nH]ccc5c4)c3)CC2)=C(c2ccc(Cl)cc2)C1 [Venetoclax] + C=CCn1c(=O)c2cnc(Nc3ccc(N4CCN(C)CC4)cc3)nc2n1-c1cccc(C(C)(C)O)n1 [AZD1775] (first compound max 1 µM, partner max 1 µM) | -0.0298 | -0.0031 | -0.0366 | 0.0453 | -0.0167 | 0.0375 | 0.0635 | -0.104 | -0.009 | -0.0298 | -0.0228 | 0.0137 | 0.0034 | -0.0237 | -0.0369 | 0.0252 | -0.018 | 0.626 | 0.364 | 0.639
CC1(C)CCC(CN2CCN(c3ccc(C(=O)NS(=O)(=O)c4ccc(NCC5CCOCC5)c([N+](=O)[O-])c4)c(Oc4cnc5[nH]ccc5c4)c3)CC2)=C(c2ccc(Cl)cc2)C1 [Venetoclax] + CCN(CCO)CCCOc1ccc2c(Nc3cc(CC(=O)Nc4cccc(F)c4)[nH]n3)ncnc2c1 [AZD2811] (first compound max 1 µM, 7x7, partner max 1 µM) | -0.0238 | -0.0503 | -0.0668 | -0.0138 | 0.0361 | -0.0052 | 0.0052 | 0.0261 | -0.0024 | 0.0046 | 0.0171 | -0.0304 | 0.0002 | -0.0139 | -0.0199 | -0.0834 | -0.0188 | 0.413 | 0.293 | 0.418
CC1(C)CCC(CN2CCN(c3ccc(C(=O)NS(=O)(=O)c4ccc(NCC5CCOCC5)c([N+](=O)[O-])c4)c(Oc4cnc5[nH]ccc5c4)c3)CC2)=C(c2ccc(Cl)cc2)C1 [Venetoclax] + CN(C)CCCOc1ccc(-c2ccc3ncc4c(c3c2)n(C2CCOCC2)c(=O)n4C)cn1 [AZD0156] (first compound max 1 µM, 7x7, partner max 1 µM) | -0.0485 | -0.029 | -0.0586 | -0.0381 | -0.0219 | -0.0046 | 0.0114 | 0.0654 | 0.0054 | -0.0361 | -0.0085 | -0.0939 | 0.0367 | -0.0106 | -0.0527 | -0.13 | -0.0107 | 0.462 | 0.162 | 0.154
CC1(C)CCC(CN2CCN(c3ccc(C(=O)NS(=O)(=O)c4ccc(NCC5CCOCC5)c([N+](=O)[O-])c4)c(Oc4cnc5[nH]ccc5c4)c3)CC2)=C(c2ccc(Cl)cc2)C1 [Venetoclax] + COc1cc(Nc2ncc3c(n2)-c2ccc(Cl)cc2C(c2c(F)cccc2OC)=NC3)ccc1C(=O)O [Alisertib] (first compound max 1 µM, 7x7, partner max 10 µM) | -0.156 | -0.0352 | -0.0696 | 0.0052 | -0.0554 | -0.0341 | 0.0248 | 0.0981 | 0.0694 | -0.0515 | -0.0713 | -0.0009 | 0.0385 | -0.0201 | -0.0126 | -0.113 | 0.0055 | 0.484 | 0.36 | 0.426
CC1(C)CCC(CN2CCN(c3ccc(C(=O)NS(=O)(=O)c4ccc(NCC5CCOCC5)c([N+](=O)[O-])c4)c(Oc4cnc5[nH]ccc5c4)c3)CC2)=C(c2ccc(Cl)cc2)C1 [Venetoclax] + C[C@@H]1COCCN1C2=NC(=NC(=C2)C3(CC3)[S@](=N)(=O)C)C4=C5C=CNC5=NC=C4 [AZD6738] (first compound max 1 µM, 7x7, partner max 10 µM) | 0.008 | -0.0459 | -0.0465 | -0.0511 | -0.018 | -0.0068 | -0.0076 | -0.0291 | 0.007 | -0.0605 | -0.0405 | -0.0597 | -0.006 | -0.0215 | -0.0553 | -0.0387 | -0.0469 | 0.339 | 0.55 | 0.317
CC1(C)CCC(CN2CCN(c3ccc(C(=O)NS(=O)(=O)c4ccc(NCC5CCOCC5)c([N+](=O)[O-])c4)c(Oc4cnc5[nH]ccc5c4)c3)CC2)=C(c2ccc(Cl)cc2)C1 [Venetoclax] + C[C@@H](Nc1cc(F)cc(F)c1)c1cc(C(=O)N(C)C)cc2c(=O)cc(N3CCOCC3)oc12 [AZD8186] (first compound max 1 µM, 7x7, partner max 3 µM) | -0.0047 | -0.043 | -0.0073 | -0.0378 | -0.0341 | -0.04 | -0.0052 | 0.0257 | 0.0121 | -0.019 | -0.0705 | 0.0226 | -0.0401 | 0.0051 | -0.0149 | -0.0467 | -0.0269 | 0.329 | 0.0913 | 0.162
CC1(C)CCC(CN2CCN(c3ccc(C(=O)NS(=O)(=O)c4ccc(NCC5CCOCC5)c([N+](=O)[O-])c4)c(Oc4cnc5[nH]ccc5c4)c3)CC2)=C(c2ccc(Cl)cc2)C1 [Venetoclax] + Cc1cc2ncnn2cc1Nc1ncc2c(n1)n(C1CCOCC1)c(=O)n2C [AZD7648] (first compound max 1 µM, 7x7, partner max 10 µM) | 0.0185 | -0.0755 | -0.0445 | -0.0376 | -0.0222 | -0.05 | -0.0098 | 0.0472 | 0.0081 | -0.0446 | -0.0821 | 0.0011 | -0.0014 | -0.0002 | -0.0351 | -0.0161 | -0.0178 | 0.494 | 0.336 | 0.341
CC1(C)CCC(CN2CCN(c3ccc(C(=O)NS(=O)(=O)c4ccc(NCC5CCOCC5)c([N+](=O)[O-])c4)c(Oc4cnc5[nH]ccc5c4)c3)CC2)=C(c2ccc(Cl)cc2)C1 [Venetoclax] + Cn1cnc2c(F)c(Nc3ccc(Br)cc3Cl)c(C(=O)NOCCO)cc21 [Selumetinib] (first compound max 1 µM, 7x7, partner max 3 µM) | 0.0127 | 0.024 | -0.0401 | -0.0691 | -0.0137 | -0.035 | -0.0062 | -0.0367 | -0.0158 | -0.0457 | 0.025 | -0.0331 | -0.0117 | -0.0572 | -0.0062 | -0.0799 | -0.0309 | 0.314 | 0.186 | 0.55
